Source: patent publication US12077503B2, “Substituted cyclic amides and their use as herbicides” (FMC CORPORATION, priority 2015, dated 2024)

Columns and labels:
Assay type in all cases: in vivo
[1] = test system: redroot pigweed (Amaranthus retroflexus); test: Test G Pre-Emergence Protocol; conditions: Amaranthus retroflexus, pre-emergence, 312 h, evaluated after 13 days; for pest or weed control at 15.625 g/ha: 15.625 g ai/ha; for pest or weed control at 15.625 g/ha / pest or weed control at 250 g/ha: read-out: Pigweed, Redroot damage rating (100=total damage to plant; 0=no damage to plant); for pest or weed control at 62.5 g/ha: 62.5 g ai/ha, 100=total damage to plant, 0=no damage to plant, read-out: plant damage rating, Pigweed, Redroot; for pest or weed control at 250 g/ha: 250 g ai/ha
Outline: (§1)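 Under a 24/16° C day/night regime with 14 h light and 65% humidity, sown pots were sprayed after one day with compound (15.625, 62.5 or 250 g/ha; 50:50 acetone/water, 0.5% Tween 20). Damage was assessed visually 13 days later, 0 to 100.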

[2] = test system: ivy-leaved morning glory (Ipomoea hederacea); test: Test G Pre-Emergence Protocol; conditions: Ipomoea, pre-emergence, 312 h, evaluated after 13 days; for pest or weed control at 15.625 g/ha: 15.625 g ai/ha, read-out: Morning-glory, Ivy-leaved damage rating (100=total damage to plant; 0=no damage to plant); for pest or weed control at 62.5 g/ha: 62.5 g ai/ha, 100=total damage to plant, 0=no damage to plant, read-out: plant damage rating, Morningglory, Ivy-leaved; for pest or weed control at 250 g/ha: 250 g ai/ha, read-out: Morningglory, Ivy-leaved damage rating (100=total damage to plant; 0=no damage to plant)
Outline: as §1

[3] = test system: giant foxtail (Setaria faberi); test: Test G Pre-Emergence Protocol; conditions: Setaria faberi, pre-emergence, 312 h, evaluated after 13 days; for pest or weed control at 15.625 g/ha: 15.625 g ai/ha; for pest or weed control at 15.625 g/ha / pest or weed control at 250 g/ha: read-out: Foxtail, Giant damage rating (100=total damage to plant; 0=no damage to plant); for pest or weed control at 62.5 g/ha: 62.5 g ai/ha, 100=total damage to plant, 0=no damage to plant, read-out: plant damage rating, Foxtail, Giant; for pest or weed control at 250 g/ha: 250 g ai/ha
Outline: as §1

[4] = test system: barnyardgrass (Echinochloa crus-galli); test: Test G Pre-Emergence Protocol; conditions: Echinochloa crus-galli, pre-emergence, 312 h, evaluated after 13 days; for pest or weed control at 15.625 g/ha: 15.625 g ai/ha, read-out: Barnyard grass damage rating (100=total damage to plant; 0=no damage to plant); for pest or weed control at 62.5 g/ha: 62.5 g ai/ha, 100=total damage to plant, 0=no damage to plant, read-out: plant damage rating, Barnyardgrass; for pest or weed control at 250 g/ha: 250 g ai/ha, read-out: Barnyardgrass damage rating (100=total damage to plant; 0=no damage to plant)
Outline: as §1

[5] = test system: velvetleaf (Abutilon theophrasti); test: Test G Pre-Emergence Protocol; conditions: Abutilon theophrasti, pre-emergence, 312 h, evaluated after 13 days; for pest or weed control at 15.625 g/ha: 15.625 g ai/ha; for pest or weed control at 15.625 g/ha / pest or weed control at 250 g/ha: read-out: Velvetleaf damage rating (100=total damage to plant; 0=no damage to plant); for pest or weed control at 62.5 g/ha: 62.5 g ai/ha, 100=total damage to plant, 0=no damage to plant, read-out: plant damage rating, Velvetleaf; for pest or weed control at 250 g/ha: 250 g ai/ha
Outline: as §1

corn (Zea mays) [6] = test: Test G Pre-Emergence Protocol; conditions: Zea mays, pre-emergence, 312 h, evaluated after 13 days; for plant injury at 15.625 g/ha: 15.625 g ai/ha; for plant injury at 15.625 g/ha / plant injury at 250 g/ha: read-out: Corn damage rating (100=total damage to plant; 0=no damage to plant); for plant injury at 62.5 g/ha: 62.5 g ai/ha, 100=total damage to plant, 0=no damage to plant, read-out: plant damage rating, Corn; for plant injury at 250 g/ha: 250 g ai/ha
Outline: as §1

[7] = test system: redroot pigweed (Amaranthus retroflexus); test: Test G Post-Emergence Protocol; conditions: Amaranthus retroflexus, post-emergence, 312 h; for pest or weed control at 15.625 g/ha: 15.625 g ai/ha, evaluated after 13 days (100=total damage to plant; 0=no damage to plant), read-out: Pigweed, Redroot damage rating; for pest or weed control at 62.5 g/ha: 62.5 g ai/ha, read-out: Pigweed, Redroot damage rating (100=total damage to plant; 0=no damage to plant); for pest or weed control at 62.5 g/ha / pest or weed control at 250 g/ha: evaluated after 13 days; for pest or weed control at 250 g/ha: 250 g ai/ha, read-out: damage to plant, Pigweed, Redroot (100=total damage to plant; 0=no damage to plant)
Outline: (§2)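 A glasshouse post-emergence test: 8-day-old plants sprayed at 15.625, 62.5 or 250 g/ha, then grown at 24/16 °C day/night with 14 h light and 65% humidity. Damage rated 13 days later, 0–100.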

[8] = test system: ivy-leaved morning glory (Ipomoea hederacea); test: Test G Post-Emergence Protocol; conditions: Ipomoea, post-emergence, 312 h; for pest or weed control at 15.625 g/ha: 15.625 g ai/ha, evaluated after 13 days (100=total damage to plant; 0=no damage to plant), read-out: Morningglory, Ivy-leaved damage rating; for pest or weed control at 62.5 g/ha: 62.5 g ai/ha, read-out: Morningglory, Ivy-leaved damage rating (100=total damage to plant; 0=no damage to plant); for pest or weed control at 62.5 g/ha / pest or weed control at 250 g/ha: evaluated after 13 days; for pest or weed control at 250 g/ha: 250 g ai/ha, read-out: damage to plant, Morningglory, Ivy-leaved (100=total damage to plant; 0=no damage to plant)
Outline: as §2

[9] = test system: giant foxtail (Setaria faberi); test: Test G Post-Emergence Protocol; conditions: Setaria faberi, post-emergence, 312 h; for pest or weed control at 15.625 g/ha: 15.625 g ai/ha, evaluated after 13 days (100=total damage to plant; 0=no damage to plant), read-out: Foxtail, Giant damage rating; for pest or weed control at 62.5 g/ha: 62.5 g ai/ha, read-out: Foxtail, Giant damage rating (100=total damage to plant; 0=no damage to plant); for pest or weed control at 62.5 g/ha / pest or weed control at 250 g/ha: evaluated after 13 days; for pest or weed control at 250 g/ha: 250 g ai/ha, read-out: damage to plant, Foxtail, Giant (100=total damage to plant; 0=no damage to plant)
Outline: as §2

[10] = test system: barnyardgrass (Echinochloa crus-galli); test: Test G Post-Emergence Protocol; conditions: Echinochloa crus-galli, post-emergence, 312 h; for pest or weed control at 15.625 g/ha: 15.625 g ai/ha, evaluated after 13 days (100=total damage to plant; 0=no damage to plant), read-out: Barnyardgrass damage rating; for pest or weed control at 62.5 g/ha: 62.5 g ai/ha, read-out: Barnyardgrass damage rating (100=total damage to plant; 0=no damage to plant); for pest or weed control at 62.5 g/ha / pest or weed control at 250 g/ha: evaluated after 13 days; for pest or weed control at 250 g/ha: 250 g ai/ha, read-out: damage to plant, Barnyardgrass (100=total damage to plant; 0=no damage to plant)
Outline: as §2

[11] = test system: velvetleaf (Abutilon theophrasti); test: Test G Post-Emergence Protocol; conditions: Abutilon theophrasti, post-emergence, 312 h; for pest or weed control at 15.625 g/ha: 15.625 g ai/ha, evaluated after 13 days (100=total damage to plant; 0=no damage to plant), read-out: Velvetleaf damage rating; for pest or weed control at 62.5 g/ha: 62.5 g ai/ha, read-out: Velvetleaf damage rating (100=total damage to plant; 0=no damage to plant); for pest or weed control at 62.5 g/ha / pest or weed control at 250 g/ha: evaluated after 13 days; for pest or weed control at 250 g/ha: 250 g ai/ha, read-out: damage to plant, Velvetleaf (100=total damage to plant; 0=no damage to plant)
Outline: as §2

corn (Zea mays) [12] = test: Test G Post-Emergence Protocol; conditions: Zea mays, post-emergence, 312 h; for plant injury at 15.625 g/ha: 15.625 g ai/ha, evaluated after 13 days (100=total damage to plant; 0=no damage to plant), read-out: Corn damage rating; for plant injury at 62.5 g/ha: 62.5 g ai/ha, read-out: Corn damage rating (100=total damage to plant; 0=no damage to plant); for plant injury at 62.5 g/ha / plant injury at 250 g/ha: evaluated after 13 days; for plant injury at 250 g/ha: 250 g ai/ha, read-out: damage to plant, Corn (100=total damage to plant; 0=no damage to plant)
Outline: as §2

CN1C[C@@H](c2ccc(C(F)(F)F)cc2)[C@H](C(=O)Nc2ncc[nH]2)C1=O (racemic) [Compound 1536]
0%: pest or weed control at 15.625 g/ha [1] | pest or weed control at 62.5 g/ha [1] | pest or weed control at 250 g/ha [1] | pest or weed control at 15.625 g/ha [2] | pest or weed control at 62.5 g/ha [2] | pest or weed control at 250 g/ha [2] | pest or weed control at 15.625 g/ha [3] | pest or weed control at 62.5 g/ha [3] | pest or weed control at 250 g/ha [3] | pest or weed control at 15.625 g/ha [4] | pest or weed control at 62.5 g/ha [4] | pest or weed control at 250 g/ha [4] | pest or weed control at 15.625 g/ha [5] | pest or weed control at 62.5 g/ha [5] | pest or weed control at 250 g/ha [5] | plant injury at 15.625 g/ha (corn (Zea mays) [6]) | plant injury at 62.5 g/ha (corn (Zea mays) [6]) | plant injury at 250 g/ha (corn (Zea mays) [6]) | pest or weed control at 15.625 g/ha [7] | pest or weed control at 62.5 g/ha [7] | pest or weed control at 250 g/ha [7] | pest or weed control at 15.625 g/ha [8] | pest or weed control at 62.5 g/ha [8] | pest or weed control at 250 g/ha [8] | pest or weed control at 15.625 g/ha [9] | pest or weed control at 62.5 g/ha [9] | pest or weed control at 250 g/ha [9] | pest or weed control at 15.625 g/ha [10] | pest or weed control at 62.5 g/ha [10] | pest or weed control at 250 g/ha [10] | pest or weed control at 15.625 g/ha [11] | pest or weed control at 62.5 g/ha [11] | pest or weed control at 250 g/ha [11] | plant injury at 15.625 g/ha (corn (Zea mays) [12]) | plant injury at 62.5 g/ha (corn (Zea mays) [12]) | plant injury at 250 g/ha (corn (Zea mays) [12])

CN1C[C@H](c2ccc(C(F)(F)F)cc2)[C@@H](C(=O)Nc2ncccc2C#N)C1=O (racemic) [Compound 1433]
0%: pest or weed control at 15.625 g/ha [1] | pest or weed control at 62.5 g/ha [1] | pest or weed control at 250 g/ha [1] | pest or weed control at 15.625 g/ha [2] | pest or weed control at 62.5 g/ha [2] | pest or weed control at 250 g/ha [2] | pest or weed control at 15.625 g/ha [3] | pest or weed control at 62.5 g/ha [3] | pest or weed control at 250 g/ha [3] | pest or weed control at 15.625 g/ha [4] | pest or weed control at 62.5 g/ha [4] | pest or weed control at 250 g/ha [4] | pest or weed control at 15.625 g/ha [5] | pest or weed control at 62.5 g/ha [5] | pest or weed control at 250 g/ha [5] | plant injury at 15.625 g/ha (corn (Zea mays) [6]) | plant injury at 62.5 g/ha (corn (Zea mays) [6]) | plant injury at 250 g/ha (corn (Zea mays) [6]) | pest or weed control at 15.625 g/ha [7] | pest or weed control at 62.5 g/ha [7] | pest or weed control at 250 g/ha [7] | pest or weed control at 15.625 g/ha [8] | pest or weed control at 62.5 g/ha [8] | pest or weed control at 250 g/ha [8] | pest or weed control at 15.625 g/ha [9] | pest or weed control at 62.5 g/ha [9] | pest or weed control at 250 g/ha [9] | pest or weed control at 15.625 g/ha [10] | pest or weed control at 62.5 g/ha [10] | pest or weed control at 250 g/ha [10] | pest or weed control at 15.625 g/ha [11] | pest or weed control at 62.5 g/ha [11] | pest or weed control at 250 g/ha [11] | plant injury at 15.625 g/ha (corn (Zea mays) [12]) | plant injury at 62.5 g/ha (corn (Zea mays) [12]) | plant injury at 250 g/ha (corn (Zea mays) [12])
